{"source": "ChEMBL document CHEMBL1255445", "about": "“Evaluation of nucleoside hydrolase inhibitors for treatment of African trypanosomiasis” (Antimicrob Agents Chemother, 2010)", "note": "The source made the active and inactive calls. No rule for the calls is given here."}
{"biological_target": "not listed separately", "assay": "Inhibition of Trypanosoma vivax Inosine-adenosine-guanosine-nucleoside hydrolase", "conditions": "not given", "units": {"Ki": "µM"}}
{"smiles": "Nc1ccnc2c(CN3C[C@H](O)[C@H](O)[C@H]3CO)cccc12", "Ki": 0.05}
{"smiles": "COc1cccc2c(CN3C[C@H](O)[C@H](O)[C@H]3CO)c[nH]c12", "Ki": 2.3}
{"smiles": "Nc1ncnc2c(CN3C[C@H](O)[C@H](O)[C@H]3CO)cccc12", "Ki": 0.015}
{"smiles": "COc1ccnc2c(CN3C[C@H](O)[C@H](O)[C@H]3CO)cccc12", "Ki": 0.029}
{"smiles": "OC[C@@H]1[C@@H](O)[C@@H](O)CN1Cc1csc2cncnc12", "Ki": 0.042}
{"smiles": "OC[C@@H]1[C@@H](O)[C@@H](O)CN1Cc1cccc2c(Cl)ccnc12", "Ki": 0.014}
{"smiles": "OC[C@@H]1[C@@H](O)[C@@H](O)CN1Cc1cccc2cncnc12", "Ki": 0.058}
{"smiles": "O=c1cc[nH]c2c(CN3C[C@H](O)[C@H](O)[C@H]3CO)cccc12", "Ki": 13.1}
{"smiles": "O=c1ccc2cccc(CN3C[C@H](O)[C@H](O)[C@H]3CO)c2[nH]1", "Ki": 187}
{"smiles": "Cc1nn(-c2ccccc2)nc1CN1C[C@H](O)[C@H](O)[C@H]1CO", "Ki": 0.063}
{"smiles": "OC[C@@H]1[C@@H](O)[C@@H](O)CN1Cc1c[nH]c2ccccc12", "Ki": 12}
{"biological_target": "not listed separately", "assay": "Inhibition of human purine nucleoside phosphorylase", "conditions": "not given", "units": {"Ki": "µM"}}
{"smiles": "Nc1ccnc2c(CN3C[C@H](O)[C@H](O)[C@H]3CO)cccc12", "Ki": "> 1000"}
{"smiles": "COc1cccc2c(CN3C[C@H](O)[C@H](O)[C@H]3CO)c[nH]c12", "Ki": "> 400"}
{"smiles": "Nc1ncnc2c(CN3C[C@H](O)[C@H](O)[C@H]3CO)cccc12", "Ki": "> 1000"}
{"smiles": "COc1ccnc2c(CN3C[C@H](O)[C@H](O)[C@H]3CO)cccc12", "Ki": "> 1000"}
{"smiles": "OC[C@@H]1[C@@H](O)[C@@H](O)CN1Cc1csc2cncnc12", "Ki": "> 1000"}
{"smiles": "OC[C@@H]1[C@@H](O)[C@@H](O)CN1Cc1cccc2c(Cl)ccnc12", "Ki": "> 1000"}
{"smiles": "OC[C@@H]1[C@@H](O)[C@@H](O)CN1Cc1cccc2cncnc12", "Ki": "> 1000"}
{"smiles": "O=c1cc[nH]c2c(CN3C[C@H](O)[C@H](O)[C@H]3CO)cccc12", "Ki": "> 500"}
{"smiles": "OC[C@@H]1[C@@H](O)[C@@H](O)CN1Cc1c[nH]c2ccccc12", "Ki": "> 800"}
{"tested_on": "Trypanosoma cruzi", "assay": "Antitrypanosomal activity against Trypanosoma cruzi Tulahuen CL2 s-galactosidase strain assessed as reduction in parasite growth after 3 days by fluorometrically", "assay_type": "functional, organism-based", "conditions": "not given"}
{"smiles": "Nc1ccnc2c(CN3C[C@H](O)[C@H](O)[C@H]3CO)cccc12", "Activity": "inactive"}
{"smiles": "COc1cccc2c(CN3C[C@H](O)[C@H](O)[C@H]3CO)c[nH]c12", "Activity": "inactive"}
{"smiles": "Nc1ncnc2c(CN3C[C@H](O)[C@H](O)[C@H]3CO)cccc12", "Activity": "inactive"}
{"smiles": "COc1ccnc2c(CN3C[C@H](O)[C@H](O)[C@H]3CO)cccc12", "Activity": "inactive"}
{"smiles": "OC[C@@H]1[C@@H](O)[C@@H](O)CN1Cc1csc2cncnc12", "Activity": "inactive"}
{"smiles": "OC[C@@H]1[C@@H](O)[C@@H](O)CN1Cc1cccc2c(Cl)ccnc12", "Activity": "inactive"}
{"smiles": "OC[C@@H]1[C@@H](O)[C@@H](O)CN1Cc1cccc2cncnc12", "Activity": "inactive"}
{"smiles": "O=c1cc[nH]c2c(CN3C[C@H](O)[C@H](O)[C@H]3CO)cccc12", "Activity": "inactive"}
{"smiles": "O=c1ccc2cccc(CN3C[C@H](O)[C@H](O)[C@H]3CO)c2[nH]1", "Activity": "inactive"}
{"smiles": "Cc1nn(-c2ccccc2)nc1CN1C[C@H](O)[C@H](O)[C@H]1CO", "Activity": "inactive"}
{"smiles": "OC[C@@H]1[C@@H](O)[C@@H](O)CN1Cc1c[nH]c2ccccc12", "Activity": "inactive"}
{"tested_on": "Leishmania infantum", "assay": "Antileishmanial activity against Leishmania infantum MHOM/MA/67/ITMAP263 intracellular amastigotes assessed as reduction in parasite growth after 3 days by fluorometrically", "assay_type": "functional, organism-based", "conditions": "not given"}
{"smiles": "Nc1ccnc2c(CN3C[C@H](O)[C@H](O)[C@H]3CO)cccc12", "Activity": "inactive"}
{"smiles": "COc1cccc2c(CN3C[C@H](O)[C@H](O)[C@H]3CO)c[nH]c12", "Activity": "inactive"}
{"smiles": "Nc1ncnc2c(CN3C[C@H](O)[C@H](O)[C@H]3CO)cccc12", "Activity": "inactive"}
{"smiles": "COc1ccnc2c(CN3C[C@H](O)[C@H](O)[C@H]3CO)cccc12", "Activity": "inactive"}
{"smiles": "OC[C@@H]1[C@@H](O)[C@@H](O)CN1Cc1csc2cncnc12", "Activity": "inactive"}
{"smiles": "OC[C@@H]1[C@@H](O)[C@@H](O)CN1Cc1cccc2c(Cl)ccnc12", "Activity": "inactive"}
{"smiles": "OC[C@@H]1[C@@H](O)[C@@H](O)CN1Cc1cccc2cncnc12", "Activity": "inactive"}
{"smiles": "O=c1cc[nH]c2c(CN3C[C@H](O)[C@H](O)[C@H]3CO)cccc12", "Activity": "inactive"}
{"smiles": "O=c1ccc2cccc(CN3C[C@H](O)[C@H](O)[C@H]3CO)c2[nH]1", "Activity": "inactive"}
{"smiles": "Cc1nn(-c2ccccc2)nc1CN1C[C@H](O)[C@H](O)[C@H]1CO", "Activity": "inactive"}
{"smiles": "OC[C@@H]1[C@@H](O)[C@@H](O)CN1Cc1c[nH]c2ccccc12", "Activity": "inactive"}
{"tested_on": "not listed separately", "assay": "Cytotoxicity against human MRC5 SV2 cells after 48 hrs", "assay_type": "cell-based", "conditions": "MRC5, 48 h", "units": {"IC50": "µM"}}
{"smiles": "COc1ccnc2c(CN3C[C@H](O)[C@H](O)[C@H]3CO)cccc12", "IC50": "> 64"}
{"smiles": "OC[C@@H]1[C@@H](O)[C@@H](O)CN1Cc1cccc2cncnc12", "IC50": "> 64"}
{"tested_on": "Trypanosoma brucei brucei", "assay": "Antitrypanosomal activity against suramin sensitive Trypanosoma brucei brucei Lister 427 assessed as reduction in parasite growth after 3 days by fluorometrically", "assay_type": "functional, organism-based", "conditions": "Lister 427, 72 h", "units": {"IC50": "µM"}}
{"smiles": "Nc1ccnc2c(CN3C[C@H](O)[C@H](O)[C@H]3CO)cccc12", "IC50": "> 64"}
{"smiles": "COc1cccc2c(CN3C[C@H](O)[C@H](O)[C@H]3CO)c[nH]c12", "IC50": "> 64"}
{"smiles": "Nc1ncnc2c(CN3C[C@H](O)[C@H](O)[C@H]3CO)cccc12", "IC50": "> 64"}
{"smiles": "COc1ccnc2c(CN3C[C@H](O)[C@H](O)[C@H]3CO)cccc12", "IC50": "> 64"}
{"smiles": "OC[C@@H]1[C@@H](O)[C@@H](O)CN1Cc1csc2cncnc12", "IC50": "> 64"}
{"smiles": "OC[C@@H]1[C@@H](O)[C@@H](O)CN1Cc1cccc2c(Cl)ccnc12", "IC50": 25}
{"smiles": "OC[C@@H]1[C@@H](O)[C@@H](O)CN1Cc1cccc2cncnc12", "IC50": "> 64"}
{"smiles": "O=c1cc[nH]c2c(CN3C[C@H](O)[C@H](O)[C@H]3CO)cccc12", "IC50": "> 64"}
{"smiles": "O=c1ccc2cccc(CN3C[C@H](O)[C@H](O)[C@H]3CO)c2[nH]1", "IC50": "> 64"}
{"smiles": "Cc1nn(-c2ccccc2)nc1CN1C[C@H](O)[C@H](O)[C@H]1CO", "IC50": "> 64"}
{"smiles": "OC[C@@H]1[C@@H](O)[C@@H](O)CN1Cc1c[nH]c2ccccc12", "IC50": "> 64"}
{"tested_on": "Plasmodium falciparum", "assay": "Antiparasitic activity against chloroquine-sensitive Plasmodium falciparum Ghana assessed as reduction in parasite growth after 3 days by fluorimetry", "assay_type": "functional, organism-based", "conditions": "not given"}
{"smiles": "Nc1ccnc2c(CN3C[C@H](O)[C@H](O)[C@H]3CO)cccc12", "Activity": "inactive"}
{"smiles": "COc1cccc2c(CN3C[C@H](O)[C@H](O)[C@H]3CO)c[nH]c12", "Activity": "inactive"}
{"smiles": "Nc1ncnc2c(CN3C[C@H](O)[C@H](O)[C@H]3CO)cccc12", "Activity": "inactive"}
{"smiles": "COc1ccnc2c(CN3C[C@H](O)[C@H](O)[C@H]3CO)cccc12", "Activity": "inactive"}
{"smiles": "OC[C@@H]1[C@@H](O)[C@@H](O)CN1Cc1csc2cncnc12", "Activity": "inactive"}
{"smiles": "OC[C@@H]1[C@@H](O)[C@@H](O)CN1Cc1cccc2c(Cl)ccnc12", "Activity": "inactive"}
{"smiles": "OC[C@@H]1[C@@H](O)[C@@H](O)CN1Cc1cccc2cncnc12", "Activity": "inactive"}
{"smiles": "O=c1cc[nH]c2c(CN3C[C@H](O)[C@H](O)[C@H]3CO)cccc12", "Activity": "inactive"}
{"smiles": "O=c1ccc2cccc(CN3C[C@H](O)[C@H](O)[C@H]3CO)c2[nH]1", "Activity": "inactive"}
{"smiles": "Cc1nn(-c2ccccc2)nc1CN1C[C@H](O)[C@H](O)[C@H]1CO", "Activity": "inactive"}
{"smiles": "OC[C@@H]1[C@@H](O)[C@@H](O)CN1Cc1c[nH]c2ccccc12", "Activity": "inactive"}
